In assay [1] the target is T1, rat PTHR1 (Rattus norvegicus, UniProt P25961).
T1 construct: expressed in transfected cells
T1 sequence (P25961 27-591): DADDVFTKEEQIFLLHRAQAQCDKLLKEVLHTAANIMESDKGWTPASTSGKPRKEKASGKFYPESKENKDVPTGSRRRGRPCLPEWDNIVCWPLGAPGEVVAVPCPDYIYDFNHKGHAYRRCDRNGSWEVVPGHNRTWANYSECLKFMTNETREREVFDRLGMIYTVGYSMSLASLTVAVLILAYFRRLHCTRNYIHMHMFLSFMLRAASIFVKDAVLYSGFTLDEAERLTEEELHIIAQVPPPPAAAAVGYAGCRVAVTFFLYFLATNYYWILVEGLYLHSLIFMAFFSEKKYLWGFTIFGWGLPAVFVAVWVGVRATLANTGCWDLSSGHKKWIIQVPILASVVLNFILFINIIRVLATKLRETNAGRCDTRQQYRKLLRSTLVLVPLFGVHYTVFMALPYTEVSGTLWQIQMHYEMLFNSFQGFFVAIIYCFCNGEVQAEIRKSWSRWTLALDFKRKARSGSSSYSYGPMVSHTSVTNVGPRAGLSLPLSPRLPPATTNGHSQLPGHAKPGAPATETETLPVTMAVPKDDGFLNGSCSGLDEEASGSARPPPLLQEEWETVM
Nature of the assay: cAMP induction in HEK293 cells stably expressing rat PTHR1. Format: cell-based. As to the method: (§1) Measurement of cAMP response. These assays were performed as previously described^27. […] Confluent monolayers of cells were pre-incubated with CO2 independent medium containing D-luciferin (0.5 mM) at 37° C. until a stable baseline level of luminescence was established (20 min). Varying concentrations of ligands were then added, and the time course of luminescence response was recorded using BioTek plate reader.
(§2) Data calculations. Data were processed using Microsoft Excel and GraphPad Prism 6. Data from cAMP dose-response assays were analyzed using a sigmoidal dose-response model with variable slope. Data sets were statistically compared by using Student's t test (two-tailed) assuming unequal variances for the two sets.

Assay [2] has as its target T2, PTHR2 (Homo sapiens, UniProt P49190).
T2 construct: expressed in transfected cells
Nature of the assay: cAMP induction in HEK293 cells stably expressing human PTHR2. Format: cell-based. Particulars: at 100 uM. As to the method:
as §1, §2

In a further assay the target is T3, human PTHR1 (Homo sapiens, UniProt Q03431).
T3 construct: expressed in transfected cells
T3 sequence (Q03431 27-593): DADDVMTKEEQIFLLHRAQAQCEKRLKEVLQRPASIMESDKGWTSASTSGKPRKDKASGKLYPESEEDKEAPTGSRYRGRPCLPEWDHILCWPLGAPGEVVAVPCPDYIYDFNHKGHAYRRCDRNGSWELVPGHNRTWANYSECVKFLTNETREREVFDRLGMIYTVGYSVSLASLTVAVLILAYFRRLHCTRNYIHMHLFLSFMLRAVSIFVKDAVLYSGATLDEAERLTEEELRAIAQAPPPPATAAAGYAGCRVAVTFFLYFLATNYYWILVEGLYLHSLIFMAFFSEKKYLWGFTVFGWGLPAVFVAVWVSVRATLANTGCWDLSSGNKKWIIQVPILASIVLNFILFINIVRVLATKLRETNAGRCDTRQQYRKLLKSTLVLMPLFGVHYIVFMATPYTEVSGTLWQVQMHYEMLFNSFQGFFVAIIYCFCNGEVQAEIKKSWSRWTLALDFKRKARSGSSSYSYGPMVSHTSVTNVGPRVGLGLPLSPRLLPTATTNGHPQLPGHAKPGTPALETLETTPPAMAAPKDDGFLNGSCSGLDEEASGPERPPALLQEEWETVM
The experiment in a line: cAMP induction (cAMP-responsive luciferase) in HEK293 cells stably expressing human PTHR1. The class given is cell-based. The method, then:
as §1, §2

The next assay has as its target T4, PTHR16E (Homo sapiens, UniProt Q03431, A83I/D81R/G76A/K80A/K82Q/P78E/R79L/S71Q/S73D/S75E/T74Q).
T4 construct: expressed in transfected cells
T4 sequence (Q03431 27-593 S71Q/S73D/T74Q/S75E/G76A/P78E/R79L/K80A/D81R/K82Q/A83I): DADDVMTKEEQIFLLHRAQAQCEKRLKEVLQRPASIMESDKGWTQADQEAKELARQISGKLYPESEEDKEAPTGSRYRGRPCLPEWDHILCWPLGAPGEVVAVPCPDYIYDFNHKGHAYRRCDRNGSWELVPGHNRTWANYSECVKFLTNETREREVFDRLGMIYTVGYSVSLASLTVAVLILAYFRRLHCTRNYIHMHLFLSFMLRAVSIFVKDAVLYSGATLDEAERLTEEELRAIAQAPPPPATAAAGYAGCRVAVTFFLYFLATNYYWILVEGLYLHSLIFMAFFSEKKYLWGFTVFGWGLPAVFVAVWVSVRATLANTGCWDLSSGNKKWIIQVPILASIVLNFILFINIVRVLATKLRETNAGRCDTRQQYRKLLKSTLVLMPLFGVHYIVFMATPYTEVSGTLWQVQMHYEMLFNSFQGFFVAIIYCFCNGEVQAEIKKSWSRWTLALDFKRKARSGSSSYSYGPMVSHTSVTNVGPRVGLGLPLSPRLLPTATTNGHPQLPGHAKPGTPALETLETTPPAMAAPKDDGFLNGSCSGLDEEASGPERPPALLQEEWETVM
Nature of the assay: cAMP induction in HEK293 cells stably expressing PTHR16E (6E/Ubc6e epitope tag in exon 2 segment). Format: cell-based. The method, then: Measurement of cAMP response. These assays were performed as previously described^27. Briefly, HEK-293-derived cell lines that stably express the Glosensor cAMP reporter (Promega Corp.)^30 and PTHR1, a PTHR1 variant, or PTHR2 were seeded into white sided 96 well plates (50,000 cells/well) and grown to confluency. Confluent monolayers of cells were pre-incubated with CO2 independent medium containing D-luciferin (0.5 mM) at 37° C. until a stable baseline level of luminescence was established (20 min). Varying concentrations of ligands were then added, and the time course of luminescence response was recorded using BioTek plate reader.
as §2
The portion of PTHR1 encoded by exon 2 is not resolved in structural studies (FIG. 12—Panel d)^13, 14, 17, is not important for ligand binding^18, and in past work has been targeted as a site for receptor modification^18, 19. A construct was generated that encodes a PTHR1 variant in which a 14-residue fragment from exon 2 was replaced with a 14-mer epitope tag from the intracellular protein UBC6e (PTHR16E, FIG. 12—Panel d)^20. A receptor construct in which a pH-sensitive green fluorescent protein variant (GFP) was inserted into the portion of the receptor encoded by exon 2 (PTHR1GFP in FIGS. 17A to 17C)^19. Another version of PTHR1 in which yellow fluorescent protein (YFP) replaces the entire extracellular domain (PTHR1YFPΔECD, FIG. 12—Panel e)^21, was also used.

The next assay concerns PTHR1YFPΔECD. The experiment in a line: Flow cytometry staining by VHH-Alexafluor647 of HEK293 cells expressing PTHR1YFPΔECD. Format: binding, human. As to the method: (§3) Flow cytometry. Suspensions of cells in PBS were stained for 1 hour on ice in the presence of indicated concentrations of VHH probes functionalized with Alexafluor647. Cells were pelleted by centrifugation and washed with PBS prior to analysis by flow cytometry (BD Accuri C6). Gating was performed on forward scatter/side scatter profiles to analyze intact cells. Data was analyzed using FlowJo version 7.6. The median fluorescent intensity (MFI) of stained cells was used to generate VHH binding dose response curves (FIG. 20).

Another assay has as its system PTHR1GFP. Nature of the assay: Flow cytometry staining by VHH-Alexafluor647 of HEK293 cells expressing PTHR1GFP. Format: binding, human. Particulars: 100 nM VHH. As to the method: FIGS. 17A-17C: Use of PTHR1-GFP. (FIG. 17A) Hypothetical structure of PTHR1 with GFP engrafted into exon 2 bound to a GFP binding nanobody. (FIG. 17B) Flow cytometry analysis of cells stably expressing PTHR1-GFP. HEK293 cell lines in suspension were incubated on ice with 100 nM VHH sortagged with Alexafluor647, pelleted by centrifugation, washed and analyzed. […] This weak staining is likely related to the inability of VHHGFP to tightly bind the pH-sensitive GFP variant known as pHluorin2 engrafted into the receptor (ref. 19, main text). (FIG. 17C) HEK293 cells stably expressing PTHR1-GFP were treated with varied doses of the indicated peptides or conjugates and activation was assessed by measuring luminescence from a cAMP-activated luciferase variant. Values listed represent EC50 values (mean±SD). Each value comes from ≥3 independent experiments. Further details, including the number of replicates for each measurement and the normalized maximal responses induced, are reported in Table 5.
Flow cytometry. Suspensions of cells in PBS were stained for 1 hour on ice in the presence of indicated concentrations of VHH probes functionalized with Alexafluor647. Cells were pelleted by centrifugation and washed with PBS prior to analysis by flow cytometry (BD Accuri C6). Gating was performed on forward scatter/side scatter profiles to analyze intact cells. Data was analyzed using FlowJo version 7.6. […]

For assay [3], the target named is T1, rat PTHR1. Nature of the assay: Flow cytometry staining by VHH-Alexafluor647 of HEK293 cells expressing rat PTHR1. Format: binding. The following applies: 100 nM VHH. As to the method: as §3
Another assay deals with PTHR1. The experiment in a line: Flow cytometry staining by VHH-Alexafluor647 of HEK293 cells expressing PTHR1 constructs that retain the ECD. Format: binding, human. Particulars: 100 nM VHH. As to the method: as §3
Assay [4] has as its target T2, PTHR2. Nature of the assay: Flow cytometry staining by VHH-Alexafluor647 of HEK293 cells expressing PTHR2. The class given is binding. Particulars: 100 nM VHH; listed as VHH22A3. As to the method: as §3

“Also recorded” adds a separate entry of the source. Square brackets hold non-standard residues; d marks the D form. Peptide text beside a SMILES is read from it. Aib = CC(C)(N)C(=O)O Bounds are passed on as bounds.

T2 sequence (P49190 25-550): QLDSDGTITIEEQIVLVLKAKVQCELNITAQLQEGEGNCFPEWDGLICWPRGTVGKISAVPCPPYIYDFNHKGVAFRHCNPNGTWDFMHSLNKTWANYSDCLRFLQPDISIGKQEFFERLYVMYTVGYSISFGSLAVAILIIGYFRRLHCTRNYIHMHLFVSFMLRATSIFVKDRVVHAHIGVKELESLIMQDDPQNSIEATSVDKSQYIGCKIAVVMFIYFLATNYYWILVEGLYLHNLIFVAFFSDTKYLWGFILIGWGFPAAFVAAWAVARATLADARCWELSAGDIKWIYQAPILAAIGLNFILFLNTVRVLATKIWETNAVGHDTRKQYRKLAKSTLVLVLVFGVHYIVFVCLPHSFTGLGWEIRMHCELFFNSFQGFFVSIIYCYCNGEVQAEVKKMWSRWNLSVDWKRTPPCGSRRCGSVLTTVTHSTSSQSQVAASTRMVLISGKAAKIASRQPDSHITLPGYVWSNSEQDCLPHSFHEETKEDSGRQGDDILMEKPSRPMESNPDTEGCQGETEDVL

Consider `CC[C@H](C)[C@H](NC(=O)[C@H](CCC(=O)O)NC(=O)C(C)(C)NC(=O)[C@@H](NC(=O)[C@H](C)N)C(C)C)C(=O)N[C@@H](CCC(N)=O)C(=O)N[C@@H](CC(C)C)C(=O)N[C@@H](CCSC)C(=O)N[C@@H](Cc1c[nH]cn1)C(=O)N[C@@H](CCC(N)=O)C(=O)N[C@@H](CCCNC(=N)N)C(=O)N[C@@H](CS)C(N)=O` [PTH(1-11)] (H-AV[Aib]EIQLMHQRC-NH2), for which the EC50 at rat PTHR1 [1] is 120 ± 90.3 nM; at human PTHR1, 516 ± 238 nM; on PTHR16E it was 94 ± 74 nM. Besides, the “response at 100 uM, hPTHR2” value at PTHR2 [2] is 20%.

Turning to “VHHGFP: nanobody that binds GFP and YFP, SEQ ID NO: 73”, in the assay on PTHR1YFPΔECD (100 nM VHH), the “staining of PTHR1YFPΔECD cells (in words)” value is reported as “stained”. In addition, the EC50 in the assay on PTHR1YFPΔECD (flow cytometry, on ice, read-out: half-maximal staining concentration, PTHR1YFP-del-NT cells) was below 10 nM. For the same molecule, in the assay on PTHR1GFP, the “staining of PTHR1GFP cells (in words)” value is recorded as “only weakly stained”.

B1: VHHPTHR: nanobody that recognizes the PTHR1 extracellular domain, SEQ ID NO: 74, from US 2010/0062004 (protein)
VHH: EVQLVESGGGLVQAGGSLRLSCAASGNIFANNIMGWYRQPPGKEREFVAHVSHDGDSMYAVSVKGRFAISRKDATNLYLQMNSLKPEDTAIYFCRLLNIPTQGRMEGFWGQGTQVTVSS
In the case of B1, in the assay with rat PTHR1 [3], the “binding to rat PTHR1 (in words)” value is recorded as “bound”. The “binding to PTHR1 constructs retaining the ECD (in words)” value with PTHR1 was “bound all constructs that retained the PTHR1 ECD; also recorded: binds to PTHR1”. The “binding to PTHR2 (in words)” value with PTHR2 [4] is “lack of binding”.

Source of the values: patent US11878063B2, “Engineered ligands and uses thereof” (Children's Medical Center Corporation, priority 2019, dated 2024).
